Laboratory results as given in patent publication US6043248A, “Alpha-substituted pyrimidine-thioalkyl and alkylether compounds as inhibitors of viral reverse transcriptase” (priority 1997, dated 2000).

What follows are compounds tested against T1, P236L viral reverse transcriptase (Human immunodeficiency virus type 1 group M subtype B, UniProt P04585, P823L) (assay: inhibition of viral reverse transcriptase (P236L), cell free assay). Conditions: 30 minutes at 37° C., read-out: IC50 (Table I, P236L).
T1 construct: P236L viral reverse transcriptase is obtained by PNAS 90: 4713-4717 (1993); made in house
Format: biochemical
From the text: The utility of the pyrimidine-thioalkyl and alkylether anti-AIDS compounds of Formula IA of this invention can be determined by their ability to inhibit viral reverse transcriptase, an enzyme essential for human immunodeficiency virus replication. This enzyme has characteristics which differentiate it from other known cellular polymerases and it is a unique enzyme which is not found in uninfected cells. Viral reverse transcriptase (Wild Type) is found in extracts from bacterial clones prepared according to the procedure described in AIDS Virus Reverse Transcriptase defined by high level expression in Escherichia coli, EMBO J. 6:3133-3137 (1987). P236L viral reverse transcriptase is obtained by PNAS 90: 4713-4717 (1993). Inhibition of this enzyme is determined in a cell free assay which measures the level of radioactive precursors incorporated into DNA. Extracts prepared according to the procedure of Science, 1125-1129 (1981) are incubated in a mixture of inhibitor, 20 mM dithiothreitol, 60 mM sodium chloride, 0.05% NP-40, 10 mM magnesium chloride, 50 mM Tris pH 8.3, 10 μM [^35 S]-labeled deoxynuleoside-5'-triphosphate, 10 μg/ml RNA template (poly rC or poly rG) and 5 μg/ml DNA primer (oligo dG or oligo dT) for 30 minutes at 37° C. Incorporation of radio-labeled percursor is determined by spotting aliquots of the reaction mixture on DE81 paper, washing the papers to remove unincorporated percursor, drying and determining counts. The results (IC50 means the concentration, in μM of drug, required to inhibit the reverse transcriptase activity (P236L and Wild Type) to the extent of 50%) of various assay(s) are combined and reported as % inhibition and/or IC50 (calculated) in Table I (P236L) and Table II (Wild Type).

How did the IC50 turn out when `Cc1ccnc(CSc2nc(N)cc(Cl)n2)c1` [Example 114, 4-amino-6-chloro-2-[2-(4-methyl)pyridylmethylthio]-pyrimidine] was run?
The IC50 was 10 nM.

For `CCOc1ccnc(CSc2nc(N)cc(Cl)n2)c1` [Example 115, 4-amino-6-chloro-2-[2-(4-ethoxy)pyridylmethylthio]-pyrimidine], which IC50 is on record?
The IC50 was 50 nM.

How did the IC50 turn out when `Cc1cccnc1CSc1nc(N)cc(Cl)n1` [Example 117, 4-amino-6-chloro-2-[2-(3-methyl)pyridylmethylthio]-pyrimidine] was run?
Its IC50 is 1050 nM.

`Cc1ccc(CSc2nc(N)cc(Cl)n2)nc1` [Example 118, 4-amino-6-chloro-2-[2-(5-methyl)pyridylmethylthio]-pyrimidine] was tested. Which IC50 did it give?
Its IC50 is 70 nM.

With `Nc1cc(Cl)nc(SCc2cc(Br)ccn2)n1` [Example 119, 4-amino-6-chloro-2-[2-(4-bromo)pyridylmethylthio]-pyrimidine] as the compound, how does the IC50 read?
The IC50 was 40 nM.

With `COc1cc(C)nc(CSc2nc(N)cc(Cl)n2)c1` [Example 120, 4-amino-6-chloro-2-[2-(4-methoxy-6-methyl)-pyridylmethylthio]-pyrimidine] as the compound, how does the IC50 read?
Its IC50 is 20 nM.

For `Cc1cc(C)nc(CSc2nc(N)cc(Cl)n2)c1` [Example 121, 4-amino-6-chloro-2-[2-(4,6-dimethyl)pyridylmethylthio]-pyrimidine], which IC50 is on record?
The IC50 was 10 nM.

Which IC50 does the source give for `CCc1ccnc(CSc2nc(N)cc(Cl)n2)c1` [Example 122, 4-amino-6-chloro-2-[2-(4-ethyl)pyridylmethylthio]-pyrimidine] here?
The IC50 was 10 nM.

With `COc1ccnc(CSc2nc(N)cc(Cl)n2)c1` [Example 123, 4-amino-6-chloro-2-[2-(4-methoxy)pyridylmethylthio]-pyrimidine] as the compound, how does the IC50 read?
The IC50 was 50 nM.

How did the IC50 turn out when `CC(C)Cc1ccnc(CSc2nc(N)cc(Cl)n2)c1` [Example 124, 4-amino-6-chloro-2-[2-(4-(2-methylpropyl))pyridylmethylthio]-pyrimidine] was run?
Its IC50 is 40000 nM.

For `Cc1cc(Cl)nc(CSc2nc(N)cc(Cl)n2)c1` [Example 125, 4-amino-6-chloro-2-[2-(6-chloro-4-methyl)pyridylmethylthio]-pyrimidine], which IC50 is on record?
The IC50 was 50 nM.

For `CC(C)Oc1ccnc(CSc2nc(N)cc(Cl)n2)c1` [Example 126, 4-amino-6-chloro-2-[2-(4-isopropoxy)pyridylmethylthio]-pyrimidine], which IC50 is on record?
The IC50 was 50 nM.

With `Cc1cc(C)nc(CSc2nc(N)cc(Cl)n2)n1` [Example 127, 4-amino-6-chloro-2-[2-(4,6-dimethyl)pyrimidinylmethylthio]-pyrimidine] as the compound, how does the IC50 read?
The IC50 was 1000 nM.

`N#Cc1ccnc(CSc2nc(N)cc(Cl)n2)c1` [Example 128, 4-amino-6-chloro-2-[2-(4-cyano)pyridylmethylthio]-pyrimidine] was tested. Which IC50 did it give?
The IC50 was 1000 nM.

Which IC50 does the source give for `Cc1cc(CSc2nc(N)cc(Cl)n2)ncn1` [Example 130, 4-amino-6-chloro-2-[4-(6-methyl)pyrimidinylmethylthio]-pyrimidine] here?
Its IC50 is 800 nM.

Which IC50 does the source give for `CCCc1ccnc(CSc2nc(N)cc(Cl)n2)c1` [Example 131, 4-amino-6-chloro-2-[2-(4-propyl)pyridylmethylthio]-pyrimidine] here?
The IC50 was 50 nM.

How did the IC50 turn out when `CC(C)c1ccnc(CSc2nc(N)cc(Cl)n2)c1` [Example 132, 4-amino-6-chloro-2-[2-(4-isopropyl)pyridylmethylthio]-pyrimidine] was run?
The IC50 was 20 nM.

`CCc1ccc(CSc2nc(N)cc(Cl)n2)nc1` [Example 134, 4-amino-6-chloro-2-[2-(4-ethyl)pyridylmethylthio]-pyrimidine] was tested. Which IC50 did it give?
The IC50 was 50 nM.

With `CC(C)(O)c1ccnc(CSc2nc(N)cc(Cl)n2)c1` [Example 135] as the compound, how does the IC50 read?
The IC50 was 100 nM.

How did the IC50 turn out when `Nc1cc(Cl)nc(SCc2cc(C3CC3)ccn2)n1` [Example 137, 4-amino-6-chloro-2-[2-(4-cyclopropyl)pyridylmethylthio]-pyrimidine] was run?
The IC50 was 10 nM.

For `Cc1cnc(CSc2nc(N)cc(Cl)n2)cc1C` [Example 140, 4-amino-6-chloro-2-[2-(4,5-dimethyl)pyridylmethylthio]-pyrimidine], which IC50 is on record?
Its IC50 is 20 nM.

Which IC50 does the source give for `Cc1cc(CSc2nc(N)cc(Cl)n2)nc(C)n1` [Example 142, 4-amino-6-chloro-2-[4-(2,6-dimethyl)pyrimidinylmethylthio]-pyrimidine] here?
Its IC50 is 500 nM.

For `Nc1cc(Cl)nc(SCc2cc(N3CCCC3)ccn2)n1` [Example 143, 4-amino-6-chloro-2-[2-(4-pyrrolidino)pyridylmethylthio]-pyrimidine], which IC50 is on record?
Its IC50 is 50 nM.

`Nc1cc(Cl)nc(SCc2ccc(Cl)s2)n1` [Example 144, 4-Amino-6-chloro-2-[(5-chlorothiophen-2-ylmethyl)thio]pyrimidine] was tested. Which IC50 did it give?
Its IC50 is 5000 nM.

`CCC(C)c1ccnc(CSc2nc(N)cc(Cl)n2)c1` (stereo not drawn) [Example 145, 4-amino-6-chloro-2-[2-(4-(2-butyl))pyridylmethylthio]-pyrimidine] was tested. Which IC50 did it give?
The IC50 was 10 nM.

How did the IC50 turn out when `CN(C)c1ccnc(CSc2nc(N)cc(Cl)n2)c1` [Example 146, 4-amino-6-chloro-2-[2-(4-dimethylamino)pyridylmethylthio]-pyrimidine] was run?
Its IC50 is 10 nM.

Which IC50 does the source give for `Nc1cc(Cl)nc(SCc2cccc[n+]2[O-])n1` [Example 147, 2-[2-(4-amino-6-chloro)pyrimidinylthiomethyl]-pyridine-1-oxide] here?
The IC50 was 5000 nM.

`Nc1cc(Cl)nc(SCc2ccoc2)n1` [Example 148, 4-Amino-6-chloro-2-[(furan-3-ylmethyl)thio]pyrimidine] was tested. Which IC50 did it give?
Its IC50 is 10000 nM.

How did the IC50 turn out when `Nc1nc(SCc2cc(Cl)ccn2)nc(Cl)c1F` [Example 149, 4-amino-6-chloro-5-fluoro-2-[2-(4-chloro)pyridylmethylthio]pyrimidine] was run?
Its IC50 is 50 nM.

For `CCC(CC)c1ccnc(CSc2nc(N)cc(Cl)n2)c1` [Example 151, 4-amino-6-chloro-2-[2-(4-(3-pentyl))pyridylmethylthio]-pyrimidine], which IC50 is on record?
Its IC50 is 60 nM.

How did the IC50 turn out when `Nc1cc(Cl)nc(SCc2cc3ccccc3o2)n1` [Example 153, 4-Amino-6-chloro-2-[(benzofuran-2-ylmethyl)thio]pyrimidine] was run?
Its IC50 is 10000 nM.

How did the IC50 turn out when `Cc1cc(CSc2nc(N)cc(Cl)n2)nc(N(C)C)c1` [Example 154, 4-amino-6-chloro-2-[2-(6-dimethylamino-4-methyl)pyridylmethylthio]-pyrimidine] was run?
Its IC50 is 50 nM.

Which IC50 does the source give for `Nc1cc(Cl)nc(SCC2=CCc3ccccc32)n1` [Example 155, 4-amino-6-chloro-2-[(1H-inden-3-ylmethyl)thio]pyrimidine] here?
Its IC50 is 5000 nM.

With `COC(=O)c1ccnc(CSc2nc(N)cc(Cl)n2)c1` [Example 156, 4-amino-6-chloro-2-[2-(4-carbomethoxy)pyridylmethylthio]-pyrimidine] as the compound, how does the IC50 read?
The IC50 was 100 nM.

`C=C(C)[C@@H]1CC=C(CSc2nc(N)cc(Cl)n2)CC1` [Example 157, 4-Amino-6-chloro-2-[((S)-(--)perillyl)thio]pyrimidine] was tested. Which IC50 did it give?
The IC50 was 10000 nM.

With `Nc1cc(Cl)nc(SCc2cc3ccccc3s2)n1` [Example 158, 4-Amino-6-chloro-2-[(benzothiophen-2-ylmethyl)thio]pyrimidine] as the compound, how does the IC50 read?
The IC50 was 1000 nM.

With `NC(=O)c1ccnc(CSc2nc(N)cc(Cl)n2)c1` [Example 163, 4-amino-6-chloro-2-[2-(4-carboxamido)-pyridylmethylthio]-pyrimidine] as the compound, how does the IC50 read?
The IC50 was 20000 nM.

Which IC50 does the source give for `Nc1cc(Cl)nc(SCc2cc(CO)ccn2)n1` [Example 164, 4-amino-6-chloro-2-[2-(4-hydroxymethyl)-pyridylmethylthio]-pyrimidine] here?
Its IC50 is 1000 nM.

Same assay, conditions: IC50 (Table I, P236L), 30 minutes at 37° C.

For `Nc1cc(Cl)nc(SCc2ccc(-c3ccccc3)cn2)n1` [Example 133, 4-amino-6-chloro-2-[2-(5-phenyl)pyridylmethylthio]-pyrimidine], which IC50 is on record?
The IC50 was 1000 nM.
